What was measured:
Type in all cases: cell-based
[1] = test system: Rat 6 subclone of the immortalized F2408 embryo cell line (R6); assay: Screening for cytotoxicity, cell count by Coulter Counter, R6 cells; conditions: for LD50 (Day 3) R6: day 3 after addition; for LD50 (Day 6) R6: day 6 after addition
Procedure: (§1) Compounds of the invention were screened against Rat 6 subclone of the immortalized F2408 embryo cell line, and Rat 6 (R6T24) cells transfected and transformed by a c-H-ras oncogene. The screening involved placing the R6 and R6T24 cell lines plated at 10^3 cells per well into a 12-well microtiter culture plate for 24 hours. The compounds were added at final concentrations from 0.1-100 μM, and cells were trypsized and counted by Coulter Counter at day 3 and day 6 after the addition. Untreated cells were assigned a survival value of 100%.

[2] = test system: Rat 6 (R6T24) cells transfected and transformed by a c-H-ras oncogene; assay: Screening for cytotoxicity, cell count by Coulter Counter, R6T24 cells; conditions: R6T24 cell line; for LD50 (Day 3) R6T24: day 3 after addition; for LD50 (Day 6) R6T24: day 6 after addition
Procedure: as §1

[3] = test system: human colon cancer cell line SW 480; assay: Growth inhibition assay (MTT), SW 480; conditions: Table VI, 6 days incubation
Procedure: (§2) As another example of evaluation of cytotoxicity, cancer cell lines were also used for a growth inhibition assay. The human colon cancer cell lines SW 480 and HT 29 and the murine melanoma cell line B16F10 were used. […] After confluent growth, the cells were trypsinated and resuspended in RPMI plus 10% FCS to a cell concentration of 50000 cells per ml in case of colon cancer cell lines and 20000 in case of B16F10. 100 μl of this cell suspension were transferred in each well of a 96 well microtiter plate and incubated for 1 day at 37° C. in a CO2-incubator. Subsequently, further 100 μl RPMI medium and 1 μl of a DMSO solution, containing the artemisinin derivatives were added. The growth inhibition was estimated after 6 days incubation at 36° C. using the MTT assay.
(§3) 25 μl MTT solution (3-(4,5-dimethylthiazol-2-yl)-2,5-diphenyltetrazolium-bromid) of a starting concentration of 5 mg/ml H2O were added and incubated at 37° C. for 5 h. Subsequently, 100 μl iso-propanol per well were added. After 15 min incubation 100 μl H2O were added. After 30 min shaking, the extinction was measured at 595 nm using a ELISA-Multiplate Reader.

[4] = test system: human colon cancer cell line HT 29; assay: Growth inhibition assay (MTT), HT 29; conditions: Table VI, 6 days incubation
Procedure: as §2, §3

[5] = test system: murine melanoma cell line B16F10; assay: Growth inhibition assay (MTT), B16F10; conditions: Table VI, 6 days incubation
Procedure: as §2, §3

Compound	LD50 (Day 3) R6 ([1]; Table VA)	LD50 (Day 6) R6 ([1]; Table VA)	LD50 (Day 3) R6T24 ([2]; Table VA)	LD50 (Day 6) R6T24 ([2]; Table VA)	LD50 SW 480 [3]	LD50 HT 29 [4]	LD50 B16F18 [5]	LD50 (Day 3) R6 ([1]; Table V)	LD50 (Day 6) R6 ([1]; Table V)	LD50 (Day 3) R6T24 ([2]; Table V)	LD50 (Day 6) R6T24 ([2]; Table V)
10α and β-[(2′-naphthylmethyl)oxy]dihydroartemisinin [Example 13α]	0.14 µM	0.037 µM	0.12 µM	0.02 µM	200 nM	500 nM	300 nM				
10α and β-[(2′-naphthylmethyl)oxy]dihydroartemisinin [Example 13β]					300 nM	600 nM	400 nM				
CC[C@@]1(O)C(=O)OCc2c1cc1n(c2=O)Cc2cc3ccccc3nc2-1 [CAMPTOTHECIN, reference compound]					9 nM	4 nM	30 nM				
CC1CCC2C(C)C(c3ccccc3)OC3OC4(C)CCC1C32OO4 (stereo not drawn) [Example 2, 10β-(phenyl)dihydroartemisinin]	0.61 µM	0.475 µM	3.05 µM	0.54 µM	300 nM	800 nM	500 nM	0.61 µM	0.475 µM	3.05 µM	0.54 µM
CC1CCC2C(C)C(OCC(F)(F)F)OC3OC4(C)CCC1C32OO4 (stereo not drawn) [Example 11, 10β-[(2′,2′,2′-trifluoroethyl)oxy]-dihydroartemisinin]	1.56 µM	0.87 µM	3.31 µM	0.39 µM	500 nM	1500 nM	500 nM	1.56 µM	0.87 µM	3.31 µM	0.39 µM
CC1CCC2C(C)C(Oc3ccnc4cc(C(F)(F)F)ccc34)OC3OC4(C)CCC1C32OO4 (stereo not drawn) [Example 12, 10β-[4′-(7′-trifluoromethyl-quinolinoxy)]dihydroartemisinin]					150 nM	2000 nM	300 nM				
CCOC(=O)CCC1C(=O)OC2OC3(C)CCC4C(C)CCC1C24OO3 (stereo not shown) [Example 19, 9-[2-(ethoxycarbonyl)ethyl]artemisinin]								52.00 µM	59.00 µM	28.12 µM	24.95 µM
C[C@@H]1CC[C@H]2[C@@H](C)C(c3ccc4ccccc4c3)O[C@@H]3O[C@@]4(C)CC[C@@H]1[C@]32OO4 (stereo partly shown) [Example 28]					150 nM	300 nM	300 nM				
COc1ccccc1C1O[C@@H]2O[C@@]3(C)CC[C@H]4[C@H](C)CC[C@@H]([C@H]1C)[C@@]24OO3 (stereo partly shown) [Example 29]					>10000 nM	>10000 nM	>10000 nM				
C[C@@H]1CC[C@H]2[C@@H](C)C(Nc3ccc(F)cc3)O[C@@H]3O[C@@]4(C)CC[C@@H]1[C@]32OO4 (stereo partly shown) [Example 31]	0.34 µM	0.27 µM	0.23 µM	0.14 µM				0.34 µM	0.27 µM	0.23 µM	0.14 µM
C[C@@H]1CC[C@H]2[C@@H](C)C(Nc3ccc(Br)cc3)O[C@@H]3O[C@@]4(C)CC[C@@H]1[C@]32OO4 (stereo partly shown) [Example 33]					60 nM	500 nM	200 nM				
C[C@@H]1CC[C@H]2[C@@H](C)C(Nc3ccc(I)cc3)O[C@@H]3O[C@@]4(C)CC[C@@H]1[C@]32OO4 (stereo partly shown) [Example 34]					100 nM	500 nM	150 nM				
C[C@@H]1CC[C@H]2[C@@H](C)C(NCc3ccccc3)O[C@@H]3O[C@@]4(C)CC[C@@H]1[C@]32OO4 (stereo partly shown) [Example 36]					60 nM	400 nM	50 nM				
C[C@@H]1CC[C@H]2[C@@H](C)C(N3CCN(C)CC3)O[C@@H]3O[C@@]4(C)CC[C@@H]1[C@]32OO4 (stereo partly shown) [Example 51]	0.33 µM	0.12 µM	0.33 µM	0.11 µM							
COc1cc(OC)c(C2O[C@@H]3O[C@@]4(C)CC[C@H]5[C@H](C)CC[C@@H]([C@H]2C)[C@@]35OO4)c(OC)c1 (stereo partly shown) [Example 59]					1500 nM	1500 nM	1500 nM				
Cc1cc(C)c(C2O[C@@H]3O[C@@]4(C)CC[C@H]5[C@H](C)CC[C@@H]([C@H]2C)[C@@]35OO4)c(C)c1 (stereo partly shown) [Example 60]					150 nM	300 nM	250 nM				
Cc1cc(C)c(C2O[C@@H]3O[C@@]4(C)CC[C@H]5[C@H](C)CC[C@@H]([C@H]2C)[C@@]35OO4)cc1C (stereo partly shown) [Example 61]					150 nM	300 nM	250 nM				
C[C@@H]1CC[C@H]2[C@@H](C)C(OC(=O)c3c4ccccc4nc4ccccc34)O[C@@H]3O[C@@]4(C)CC[C@@H]1[C@]32OO4 (stereo partly shown) [Example 65]								2.73 µM	2.52 µM	3.21 µM	1.60 µM
CC1CCC2C(C)C(OC(=O)c3ccc4c(c3)C(=O)c3ccccc3C4=O)OC3OC4(C)CCC1C32OO4 (stereo not shown) [Example 66]	0.34 µM	3.6 µM	0.32 µM	0.32 µM				0.34 µM	3.60 µM	0.32 µM	0.32 µM
CC1CCC2C(C)C(OCc3cccc(F)c3)OC3OC4(C)CCC1C32OO4 (stereo not shown) [Example 78]					250 nM	1500 nM	200 nM				
CC1CCC2C(C)C(OCc3ccc(F)cc3)OC3OC4(C)CCC1C32OO4 (stereo not shown) [Example 79]					200 nM	1500 nM	200 nM				
CC1CCC2C(C)C(OCc3cccc4c3ccc3ccccc34)OC3OC4(C)CCC1C32OO4 (stereo not shown) [Example 82]	0.12 µM	0.12 µM	0.05 µM	0.06 µM							
C[C@@H]1CC[C@H]2[C@@H](C)C(=O)N(Cc3cccc(F)c3)[C@@H]3O[C@@]4(C)CC[C@@H]1[C@@]23OO4 [Example 87]								>50.00 µM	17.5 µM	6.14 µM	1.07 µM
C[C@@H]1CC[C@H]2[C@@H](C)C(=O)N(Cc3ccccc3)[C@@H]3O[C@@]4(C)CC[C@@H]1[C@@]23OO4 [Example 88]	47.0 µM	18.49 µM	10.45 µM	5.24 µM				46.67 µM	18.49 µM	10.45 µM	5.24 µM

Source: patent US6649647B1, “Trioxane derivatives” (priority 1998, dated 2003)
